Patent US7794960B2, “Predictive biomarkers in cancer therapy” (GlaxoSmithKline LLC, priority 2004, dated 2010)

Key:
[1] = test system: metastatic cancers overexpressing ErbB2 and/or expressing ErbB1; assay: Clinical response (RECIST) in open-label randomized dose-cohort trial; type: in vivo, human; conditions: for Partial Response (PR), number of patients / Stable Disease (SD), number of patients: all subjects
Protocol: Clinical response was assessed after 8 weeks of therapy.
The Institutional Review Boards at the Sarah Cannon Cancer Center, University of North Carolina-Chapel Hill/Lineberger Comprehensive Cancer Center, Duke University Medical Center, and Case Western Reserve Medical Center approved this study.
Patients with a positive response to treatment (CR, PR or SD) continued on therapy with re-staging every 8 weeks thereafter. Patients were withdrawn from study upon evidence of disease progression or intolerable side effects.

p-ErbB1 = assay: Quantitative IHC of sequential tumor biopsies (Day 0 vs Day 21): p-ErbB1; type: in vivo, human; conditions: for pErbB1 % change: Day 21 vs Day 0
EGFR autophosphorylation = conditions: tumor cell lines that overexpress these receptors; cited from earlier work
[2] = test system: ErbB2 autophosphorylation; conditions: tumor cell lines that overexpress these receptors; cited from earlier work
ErbB1 = assay: Quantitative IHC of sequential tumor biopsies (Day 0 vs Day 21): ErbB1; conditions: 900 mg/day; for ErbB1 % change: Day 21 vs Day 0
Text: (§1) Patients were monitored by physical examination, clinical chemistry and hematology blood tests, and formally re-staged after 8 weeks of therapy. […] Response was classified as Complete Response (CR), Partial Response (PR), Stable Disease (SD) or Progressive Disease (PD). Patients with CR, PR or SD were considered to have a positive clinical response. Patients with Progressive Disease (PD) were considered to have a negative clinical response.
(§2) Biopsies were fixed in 10% neutral buffered formalin (NBF) and paraffin-embedded sections prepared. Hematoxylin and eosin (H&E) staining was used to confirm for the presence of tumor.
(§3) The VMSI “I-View” detection kit was used for all three of the VMSI pre-diluted primary antibodies. Erk1/2 (1:1200), and TGFalpha (1:20) were immunostained using the “BenchMark” with I-VIEW detection chemistry. Phospho-Erk1/2 (1:100) and p-Akt (1:75) were immunostained using a labeled streptavidin peroxidase technique. […] Slides were placed onto the Autostainer (Dako, Carpinteria, Calif.) and used the labeled streptavidin-biotin peroxidase method (LSAB2 kit, Dako) as the detection chemistry. After staining, ErbB1, ErbB2, Erk1/2, p-Akt, p-Erk1/2, p-ErbB1, p-ErbB2, cyclin D1, IGF-IR, and TGFalpha were counterstained manually with 4% ethyl green (Sigma-Aldrich). […] Investigators preparing and analyzing tissue sections were blinded to both patient tumor type and response to therapy.
(§4) Expression of ErbB1, ErbB2, p-ErbB1, p-ErbB2, Erk1/2, p-Erk1/2, Akt, p-Akt, TGFalpha, IGF-IR and cyclin D1 was assessed by IHC with automated image analysis using established assays; OD values were assigned to each specimen.
(§5) For purposes of this Example, “inhibition” of a biomarker refers to a decrease in the level of the biomarker, assessed by comparing the level detected in a Day 0 biopsy from a patient to the level detected in a Day 21 biopsy from the same patient.

ErbB2 = assay: Quantitative IHC of sequential tumor biopsies (Day 0 vs Day 21): ErbB2; conditions: 900 mg/day; for ErbB2 % change: Day 21 vs Day 0
Text: as §1, §2, §3, §4, §5

p-Akt = assay: Quantitative IHC of sequential tumor biopsies (Day 0 vs Day 21): p-Akt; conditions: for pAkt % change: Day 21 vs Day 0; for p-Akt inhibition (Day 21 vs Day 0): PR
Text: as §1, §2, §3, §4, §5

p-ErbB2 = assay: Quantitative IHC of sequential tumor biopsies (Day 0 vs Day 21): p-ErbB2; conditions: for pErbB2 % change: Day 21 vs Day 0
Text: as §1, §2, §3, §4, §5

p-Erk1/2 = assay: Quantitative IHC of sequential tumor biopsies (Day 0 vs Day 21): p-Erk1/2
Text: as §1, §2, §3, §4, §5

TGFalpha = assay: Quantitative IHC of sequential tumor biopsies (Day 0 vs Day 21): TGFalpha; conditions: 900 mg/day; for TGFa % change: Day 21 vs Day 0
Text: as §1, §2, §3, §4, §5

cyclin D1 = assay: Quantitative IHC of sequential tumor biopsies (Day 0 vs Day 21): cyclin D1; conditions: for Cyclin D % change: Day 21 vs Day 0
Text: as §1, §2, §3, §4, §5

tumor cells = assay: TUNEL assay of sequential tumor biopsies (Day 0 vs Day 21), tumor cell apoptosis; conditions: for TUNEL % change: Day 21 vs Day 0; for TUNEL % change / TUNEL score (percent tumor cells staining positive), Day 21: 900 mg/day
Text: A commonly used method is TUNEL (Terminal deoxynucleotidyl Transferase Biotin-dUTP Nick End Labeling). One of the characteristics of apoptosis is the degradation of DNA after the activation of Ca/Mg dependent endonucleases. This DNA cleavage leads to strand breaks within the DNA. The TUNEL method identifies apoptotic cells in situ by using terminal deoxynucleotidyl transferase (TdT) to transfer biotin-dUTP to the free 3′-OH of cleaved DNA. The biotin-labeled cleavage sites are then visualized by reaction with fluorescein conjugated avidin (avidin-FITC).
as §1
TUNEL assay (Roche Diagnostics, Indianapolis, Ind.) was performed according to the manufacturer's instructions. Investigators preparing and analyzing tissue sections were blinded to both patient tumor type and response to therapy.
TUNEL scores represent the percent tumor cells staining positive.
For purposes of this Example, an “increase” in TUNEL score refers to an increased TUNEL score in the Day 21 biopsy, compared to the TUNEL score of the Day 0 biopsy from the same patient.
TUNEL staining is a quantitative measurement of DNA fragmentation characteristic of cellular apoptosis.

[3] = Breast, 30 enrolled, 500-1,600 mg orally once daily
[4] = Carcinoma of Unknown Primary, 5 enrolled
[5] = breast cancer patient, 900 mg/day, Progressive Disease
[6] = refractory Inflammatory Breast Cancer patient, 900 mg/day, Partial Response
[7] = additional patient with non-inflammatory metastatic breast cancer, PR, 1200 mg/d, 21 days
[8] = patient with breast cancer, PD after 8 weeks (Table 5)
[9] = patient with non-inflammatory metastatic breast cancer, PR, 900 mg/day
[10] = second patient with IBC, PR (Table 4)
[11] = breast cancer patient, Progressive Disease
[12] = refractory Inflammatory Breast Cancer patient, Partial Response
[13] = first patient with IBC, PR, 650 mg/d, 21 days

For `CS(=O)(=O)CCNCc1ccc(-c2ccc3ncnc(Nc4ccc(OCc5cccc(F)c5)c(Cl)c4)c3c2)o1` [lapatinib], the “Partial responses (PR), number of patients” value ([1]; 33 patients with sequential tumor biopsies, breast cancer) was 4, the “Disease stabilization (SD), number of patients” value ([1]; 33 patients with sequential tumor biopsies, various malignancies) was 11 and the “Partial Response (PR), number of patients” value (“Partial Response (PR)” for short) [1, 3] was 4. For the same compound, the “Stable Disease (SD), number of patients” value [1, 3] was 10, the “Partial Response (PR)” value [1, 4] was 0 and the “Stable Disease (SD), number of patients” value [1, 4] was 5. For the same compound, the “Partial Response (PR)” value ([1]; Colon, 7 enrolled) was 0, the “Stable Disease (SD), number of patients” value ([1]; Colon, 7 enrolled) was 2 and the “Partial Response (PR)” value ([1]; Head and Neck, 5 enrolled) was 0. For the same compound, the “Stable Disease (SD), number of patients” value ([1]; Head and Neck, 5 enrolled) was 3, the “Partial Response (PR)” value ([1]; Lung, 11 enrolled) was 0 and the “Stable Disease (SD), number of patients” value ([1]; Lung, 11 enrolled) was 6. For the same compound, the “Partial Response (PR)” value ([1]; Other tumor types, 5 enrolled) was 0, the “Stable Disease (SD), number of patients” value ([1]; Other tumor types, 5 enrolled) was 4 and the “Partial Response (PR)” value ([1]; Ovarian, 4 enrolled) was 0. The “Stable Disease (SD), number of patients” value ([1]; Ovarian, 4 enrolled) was 2, the “Partial Response (PR)” value ([1]; Total, 67 enrolled) was 4 and the “Stable Disease (SD), number of patients” value ([1]; Total, 67 enrolled) was 32. For the same compound, the “Number of patients with Partial Response” value ([1]; dose 650 mg/day) was 1, the “Number of patients with Partial Response” value ([1]; dose 900 mg/day) was 1 and the “Number of patients with Partial Response” value ([1]; dose 1200 mg/day) was 2. The “Response Duration, median” value ([1]; patients with Partial Response) was 5+ months, the pErbB1 % change (p-ErbB1; [5]) was −81% and the pErbB1 % change (p-ErbB1; [6]) was −80%. The “p-ErbB1 inhibition (Day 21 vs Day 0)” value (p-ErbB1; [7]) was “not associated with any appreciable inhibition”, the “pErbB1 (IHC OD value), Day 21” value (p-ErbB1; [5]) was 3 and the “p-ErbB1 inhibition (Day 21 vs Day 0)” value (p-ErbB1; [8]) was 81%. The “p-ErbB1 inhibition (Day 21 vs Day 0)” value (p-ErbB1; [9]) was 31%, the “pErbB1 (IHC OD value), Day 21” value (p-ErbB1; [6]) was 1 and the “p-ErbB1 inhibition (Day 21 vs Day 0)” value (p-ErbB1; [10]) was 80%. For the same compound, the EGFR autophosphorylation (EGFR autophosphorylation) was “inhibits”, the ErbB2 autophosphorylation [2] was “inhibits” and the ErbB1 % change (ErbB1; [11]) was “+35%”. The ErbB1 % change (ErbB1; [12]) was −9%, the “ErbB1 (IHC OD value), Day 21” value (ErbB1; [11]) was 19 and the “ErbB1 (IHC OD value), Day 21” value (ErbB1; [12]) was 32. The ErbB2 % change (ErbB2; [11]) was −27%, the ErbB2 % change (ErbB2; [12]) was −7% and the “ErbB2 (IHC OD value), Day 21” value (ErbB2; [11]) was 32. The “ErbB2 (IHC OD value), Day 21” value (ErbB2; [12]) was 65, the pAkt % change (p-Akt; [5]) was −8% and the pAkt % change (p-Akt; [6]) was −0%. For the same compound, the “p-Akt inhibition (Day 21 vs Day 0)” value (p-Akt; additional patient with non-inflammatory metastatic breast cancer, 1200 mg/d, 21 days) was 34%, the “pAkt (IHC OD value), Day 21” value (p-Akt; [5]) was 33 and the “p-Akt inhibition (Day 21 vs Day 0)” value (p-Akt; first patient with IBC, 650 mg/d, 21 days) was 90%. For the same compound, the “p-Akt change (Day 21 vs Day 0)” value (p-Akt; [8]) was “essential unchanged”, the “p-Akt inhibition (Day 21 vs Day 0)” value (p-Akt; patient with non-inflammatory metastatic breast cancer, 900 mg/day) was 44% and the “pAkt (IHC OD value), Day 21” value (p-Akt; [6]) was 20. For the same compound, the “p-Akt change (Day 21 vs Day 0)” value (p-Akt; [10]) was “essentially unchanged”, the pErbB2 % change (p-ErbB2; [5]) was 0% and the pErbB2 % change (p-ErbB2; [6]) was −83%. The “p-ErbB2 inhibition (Day 21 vs Day 0)” value (p-ErbB2; [7]) was “not associated with any appreciable inhibition”, the “pErbB2 (IHC OD value), Day 21” value (p-ErbB2; [5]) was 3 and the “p-ErbB2 inhibition (Day 21 vs Day 0)” value (p-ErbB2; [13]) was 72%. The “p-ErbB2 change (Day 21 vs Day 0)” value (p-ErbB2; [9]) was “remained unchanged”, the “pErbB2 (IHC OD value), Day 21” value (p-ErbB2; [6]) was 5 and the “p-ErbB2 inhibition (Day 21 vs Day 0)” value (p-ErbB2; [10]) was 83%. For the same compound, the “p-Erk1/2 inhibition (Day 21 vs Day 0)” value (p-Erk1/2; [7]) was “complete inhibition”, the “p-Erk1/2 inhibition (Day 21 vs Day 0)” value (p-Erk1/2; [8]) was 87% and the “p-Erk1/2 inhibition (Day 21 vs Day 0)” value (p-Erk1/2; [9]) was “completely inhibited”. For the same compound, the “p-Erk1/2 inhibition (Day 21 vs Day 0)” value (p-Erk1/2; [10]) was 68%, the TGFa % change (TGFalpha; [11]) was −53% and the TGFa % change (TGFalpha; [12]) was −61%. The “TGFa (IHC OD value), Day 21” value (TGFalpha; [11]) was 23, the “TGFa (IHC OD value), Day 21” value (TGFalpha; [12]) was 21 and the “Cyclin D % change” value (cyclin D1; [5]) was −76%. The “Cyclin D % change” value (cyclin D1; [6]) was −57%, the “cyclin D inhibition (Day 21 vs Day 0)” value (cyclin D1; [7]) was 90% and the “Cyclin D (IHC OD value), Day 21” value (cyclin D1; [5]) was 10. For the same compound, the “cyclin D1 inhibition (Day 21 vs Day 0)” value (cyclin D1; [13]) was 49%, the “cyclin D1 inhibition (Day 21 vs Day 0)” value (cyclin D1; [8]) was 76% and the “cyclin D1 inhibition (Day 21 vs Day 0)” value (cyclin D1; [9]) was 90%. For the same compound, the “Cyclin D (IHC OD value), Day 21” value (cyclin D1; [6]) was 12, the “cyclin D1 inhibition (Day 21 vs Day 0)” value (cyclin D1; [10]) was 57% and the TUNEL % change (tumor cells; [11]) was 0%. For the same compound, the TUNEL % change (tumor cells; [12]) was “+2400%”, the “Percentage of tumor cells stained positive by TUNEL, Day 21 vs Day 0” value (tumor cells; all four patients achieving Partial Response) was “markedly increased” and the “TUNEL score (percent tumor cells staining positive), Day 21” value (tumor cells; [11]) was 0. For the same compound, the “TUNEL score, Day 21 vs Day 0” value (tumor cells; patient with ErbB1-overexpressing head and neck carcinoma, tumor regression after 8 weeks not qualifying as PR) was “increased”, the “TUNEL score, Day 21 vs Day 0” value (tumor cells; [8]) was “did not show an increase” and the “TUNEL score, Day 21 vs Day 0” value (tumor cells; patients with PD at 8 weeks) was “did not increase”. For the same compound, the “TUNEL score (percent tumor cells staining positive), Day 21” value (tumor cells; [12]) was 72.
